Columns and labels:
[1] = test system: Enterococcus hirae ATCC 10541; experiment: MIC micro-dilution assay; assay type: cell-based; settings: BHI, 37 °C, 18 h
[2] = test system: Bacillus subtilis ATCC 6633; experiment: MIC micro-dilution assay; assay type: cell-based; settings: MH, 37 °C, 18 h
[3] = test system: Bacillus cereus LSPQ 2872; experiment: MIC micro-dilution assay; assay type: cell-based; settings: MH, 37 °C, 18 h
[4] = test system: Staphylococcus aureus ATCC 29213; experiment: MIC micro-dilution assay; assay type: cell-based; settings: MH, 37 °C, 18 h
[5] = test system: Lactococcus lactis ATCC 19257; experiment: MIC micro-dilution assay; assay type: cell-based; settings: MRS, 37 °C, 18 h
[6] = test system: Bifidobacterium animalis ATCC 27536; experiment: MIC micro-dilution assay; assay type: cell-based; settings: RCM, 37 °C, 18 h
[7] = test system: Lactobacillus acidophilus ATCC 4356; experiment: MIC micro-dilution assay; assay type: cell-based; settings: MRS, 37 °C, 18 h
[8] = test system: Staphylococcus aureus ATCC 25923; experiment: MIC micro-dilution assay; assay type: cell-based; settings: MH, 37 °C, 18 h
[9] = test system: Clostridium tyrobutiricum ATCC 25755; experiment: MIC micro-dilution assay; assay type: cell-based, Clostridium tyrobutyricum; settings: RCM, 37 °C, 18 h
C. perfringens = assay type: cell-based, Clostridium perfringens; settings: radial diffusion assays, RCM
[10] = test system: Bacillus coagulans ATCC 7050; experiment: MIC micro-dilution assay; assay type: cell-based; settings: MH, 37 °C, 18 h
[11] = test system: Staphylococcus aureus ATCC 6538; experiment: MIC micro-dilution assay; assay type: cell-based; settings: MH, 37 °C, 18 h
[12] = test system: Escherichia coli ATCC 25922; experiment: MIC micro-dilution assay; assay type: cell-based; settings: MH, 37 °C, 18 h
[13] = test system: Streptococcus thermophilus RBL 18 FYE 41; experiment: MIC micro-dilution assay; assay type: cell-based; settings: MH, 37 °C, 18 h
[14] = test system: Enteroccocus faecalis ATCC 27275; experiment: MIC micro-dilution assay; assay type: cell-based, Enterococcus faecalis; settings: BHI, 37 °C, 18 h
M. luteus ATCC 10240 = experiment: Antimicrobial assay; assay type: cell-based, Micrococcus luteus; settings: at up to 100 µM
L. monocytogenes LSD530 = settings: micro-dilution, twofold serial dilutions, 37 °C, 18 h, absorbance 595 nm, means of two independent experiments in duplicate
[15] = test system: L. monocytogenes ATCC 19111; settings: micro-dilution, twofold serial dilutions, 37 °C, 18 h, absorbance 595 nm, means of two independent experiments in duplicate
[16] = test system: L. monocytogenes ATCC 19111; settings: L. monocytogenes ATCC 19111, soft agar TSBYE; 75 µL of 1 mg/mL peptide (or UL5 culture supernatant) per well; 37 °C, 18 h
P. acidilactici UL5 = experiment: MIC micro-dilution assay; assay type: cell-based, Pediococcus acidilactici; settings: P. acidilactici UL5 (pediocin producer, immune), 37 °C, 18 h, absorbance 595 nm, means of two independent experiments in duplicate
L. ivanovii HPB28 = settings: micro-dilution, twofold serial dilutions, 37 °C, 18 h, absorbance 595 nm, means of two independent experiments in duplicate
[17] = test system: L. ivanovii HPB28, L. monocytogenes LSD530, L. monocytogenes ATCC 19111; settings: L. ivanovii HPB28, L. monocytogenes LSD530 and ATCC 19111; micro-dilution, 37 °C, 18 h

Q: How did the MIC [1] turn out when `CC[C@H](C)[C@H](NC(=O)[C@H](CS)NC(=O)[C@@H](NC(=O)[C@@H](NC(=O)[C@H](C)NC(=O)[C@H](CCCCN)NC(=O)CNC(=O)[C@H](Cc1c[nH]c2ccccc12)NC(=O)[C@H](CC(=O)O)NC(=O)[C@@H](NC(=O)[C@H](CO)NC(=O)[C@H](CS)NC(=O)[C@H](CO)NC(=O)[C@H](Cc1c[nH]cn1)NC(=O)[C@H](CCCCN)NC(=O)CNC(=O)[C@H](CS)NC(=O)[C@@H](NC(=O)[C@@H](NC(=O)CNC(=O)[C@H](CC(N)=O)NC(=O)CNC(=O)[C@H](Cc1ccc(O)cc1)NC(=O)[C@H](Cc1ccc(O)cc1)NC(=O)[C@@H](N)CCCCN)C(C)C)[C@@H](C)O)C(C)C)[C@@H](C)O)[C@@H](C)O)C(=O)N[C@H](C(=O)N[C@@H](CC(N)=O)C(=O)N[C@@H](CC(N)=O)C(=O)NCC(=O)N[C@@H](C)C(=O)N[C@@H](CC(C)C)C(=O)N[C@@H](C)C(=O)N[C@@H](Cc1c[nH]c2ccccc12)C(=O)N[C@@H](C)C(=O)N[C@H](C(=O)NCC(=O)NCC(=O)N[C@@H](Cc1c[nH]cn1)C(=O)N[C@@H](CCC(N)=O)C(=O)NCC(=O)N[C@@H](CC(N)=O)C(=O)N[C@@H](Cc1c[nH]cn1)C(=O)N[C@@H](CCCCN)C(=O)N[C@@H](CS)C(=O)O)[C@@H](C)O)[C@@H](C)CC` [compound 4] was run?
A: Its MIC is “n.a. (no activity detected at concentrations up to 100 µM)”.

Q: What about the MIC [2] of the same compound?
A: Its MIC is “n.a. (no activity detected at concentrations up to 100 µM)”.

Q: And the MIC [3]?
A: Its MIC is “n.a. (no activity detected at concentrations up to 100 µM)”.

Q: And the MIC [4]?
A: The MIC was “n.a. (no activity detected at concentrations up to 100 µM)”.

Q: What about the MIC [5] of the same compound?
A: The MIC was “n.a. (no activity detected at concentrations up to 100 µM)”.

Q: What about the MIC [6] of the same compound?
A: Its MIC is “n.a. (no activity detected at concentrations up to 100 µM)”.

Q: What about the MIC [7] of the same compound?
A: The MIC was “n.a. (no activity detected at concentrations up to 100 µM)”.

Q: What about the MIC [8] of the same compound?
A: The MIC was “n.a. (no activity detected at concentrations up to 100 µM)”.

Q: And the MIC [9]?
A: Its MIC is “n.a. (no activity detected at concentrations up to 100 µM)”.

Q: And the “inhibition diameters against C. perfringens, range over two strains” value (C. perfringens)?
A: Its value is 22–25 mm.

Q: And the MIC [10]?
A: The MIC was “n.a. (no activity detected at concentrations up to 100 µM)”.

Q: What about the MIC [11] of the same compound?
A: The MIC was “n.a. (no activity detected at concentrations up to 100 µM)”.

Q: What about the MIC [12] of the same compound?
A: The MIC was “n.a. (no activity detected at concentrations up to 100 µM)”.

Q: What about the MIC [13] of the same compound?
A: The MIC was “n.a. (no activity detected at concentrations up to 100 µM)”.

Q: And the MIC [14]?
A: Its MIC is “n.a. (no activity detected at concentrations up to 100 µM)”.

Q: How did the “activity against M. luteus ATCC 10240” value (M. luteus ATCC 10240) turn out when `CC[C@H](C)[C@@H]1NC(=O)[C@@H](NC(=O)[C@@H](NC(=O)[C@@H](NC(=O)[C@H](C)NC(=O)[C@H](CCCCN)NC(=O)CNC(=O)[C@H](Cc2c[nH]c3ccccc23)NC(=O)[C@H](CC(=O)O)NC(=O)[C@@H](NC(=O)[C@H](CO)NC(=O)[C@@H]2CSSC[C@H](NC(=O)[C@@H](NC(=O)[C@@H](NC(=O)CNC(=O)[C@H](CC(N)=O)NC(=O)CNC(=O)[C@H](Cc3ccc(O)cc3)NC(=O)[C@H](Cc3ccc(O)cc3)NC(=O)[C@@H](N)CCCCN)C(C)C)[C@@H](C)O)C(=O)NCC(=O)N[C@@H](CCCCN)C(=O)N[C@@H](Cc3c[nH]cn3)C(=O)N[C@@H](CO)C(=O)N2)C(C)C)[C@@H](C)O)[C@@H](C)O)CSSC[C@@H](C(=O)O)NC(=O)[C@H](CCCCN)NC(=O)[C@H](Cc2c[nH]cn2)NC(=O)[C@H](CC(N)=O)NC(=O)CNC(=O)[C@H](CCC(N)=O)NC(=O)[C@H](Cc2c[nH]cn2)NC(=O)CNC(=O)CNC(=O)[C@H]([C@@H](C)O)NC(=O)[C@H](C)NC(=O)[C@H](Cc2c[nH]c3ccccc23)NC(=O)[C@H](C)NC(=O)[C@H](CCSC)NC(=O)[C@H](C)NC(=O)CNC(=O)[C@H](CC(N)=O)NC(=O)[C@H](CC(N)=O)NC(=O)[C@H]([C@@H](C)CC)NC1=O` [3c, pediocin PA-1] was run?
A: The value was “no activity”.

Q: Which Minimal inhibitory concentration (L. monocytogenes LSD530) does the source give for “KYYGNGVTAGKHSASVDWGKATTAIINNGAMAWATGGHQGNHKA [compound 6]” here?
A: The Minimal inhibitory concentration was “n.a. (no activity detected at concentrations up to 100 µM)”.

Q: And the Minimal inhibitory concentration [15]?
A: The Minimal inhibitory concentration was “n.a. (no activity detected at concentrations up to 100 µM)”.

Q: And the Inhibition zone diameter [16]?
A: The Inhibition zone diameter was “no activity”.

Q: What about the Minimal inhibitory concentration (P. acidilactici UL5) of the same compound?
A: Its Minimal inhibitory concentration is “n.a. (no activity detected at concentrations up to 100 µM)”.

Q: What about the Minimal inhibitory concentration (L. ivanovii HPB28) of the same compound?
A: The Minimal inhibitory concentration was “n.a.^a (no activity detected at concentrations up to 100 µM)”.

Q: And the “MIC, range over the Listeria target strains” value [17]?
A: Its value is “completely inactive”.
